Data set [1] deals with male CD [Crl:CD(SD)] rats. The data set is described as follows: Conditioned place preference (CPP) study, abuse liability assessment. The conditions noted are these: for Conditioned place preference score for CS+ (percentage of time in the 2 conditioning compartments), Mean / Conditioned place preference score for CS+, LSMean (least squares mean): 20 mg/kg oral gavage (positive control). The class given is in vivo, rat. The procedure:
Purpose: A conditioned place preference (CPP) study was conducted in rats to evaluate the abuse potential of exemplary aqueous A. muscaria extract AME-1. The CPP study is a standard behavioral model used for studying the reward and aversive effects of a compound and is designed to determine the reinforcing properties of drugs of abuse using classical Pavlovian conditioning. Accordingly, the CPP paradigm provides for a rapid measurement of the positive reinforcing or aversive properties of a test sample, in this case, AME-1.
Methods: Four treatment groups of 8 male CD® [Crl:CD®(SD)] rats were exposed to unique environmental cues associated with a conditioned stimuli (CS+) or saline (CS−) in a 3-chamber straight alleyway system. Following a habituation phase (Week −1) during which compartment preference was determined for each animal, the conditioning phase (Week 1 and Week 2) was conducted during which compartments 1 and 3 were paired with the test and control articles or saline. Saline (CS−) and test/control articles (CS+, at 800 and 1100 mg/kg of exemplary A. muscaria aqueous extract AME-1 or 20 mg/kg cocaine) were administered via oral gavage at a dose volume of 5 mL/kg. After two sets of conditioning trials during the conditioning phase, each rat was retested for free-choice side preference (Days 5 and 12). Each rat received eight stimulus environmental pairing sessions (e.g., four test article and four saline) and two CPP test sessions (T1, T2). The study design was as follows:
The following parameters and endpoints were evaluated in this study: mortality, clinical signs, body weights, and CPP testing. During CPP testing sessions, the following parameters were assessed: 1) Total time spent in the black and/or white (Compartment 1 and 3) compartments, which were used to calculate the “preference score,” and these values expressed as a percentage of time in the two conditioning compartments; 2) Total number of beam breaks in each conditioning compartment; and 3) Preference score expressed as a percentage of time in the 2 conditioning compartments. Only preference scores for the CS+ expressed as a percentage of time in the 2 conditioning compartments were reported. A CPP was determined when the test subject spent more time in the test sample-paired compartment versus the vehicle-paired compartment. Conversely, a conditioned place aversion (CPA) was determined when the test subject spent more time in the vehicle-paired compartment versus the sample-paired compartment. Therefore, possible outcomes included whether AME-1 causes a dependence, an aversive effect, or no effect. The total time spent in the nonpreferred compartment+total time spent in both conditioning compartments was expressed as a percentage, and used as a measure of “side preference.” Side preference infers a hedonic valence for the environmental cues of the compartment. Initial side preferences/biases (Habituated Score-H) were used to determine which of two compartments would be paired with the targeted interoceptive states. After two CS-UCS pairings, groups were retested for side preference (Test 1-1; Test 2-2). A significant change score from the initial habituation test scores reflected a conditioned place approach (* p<0.05).

For data set [2] the following is noted: cited from earlier work.
Data set [3] deals with levels of serotonin (5-hydroxytryptamine), noradrenaline and dopamine in the brain. Particulars: male rats and mice, cited from earlier work.
Another data set deals with GABA receptor. Particulars: cited from earlier work; for Mechanism of action at the GABA receptor: Brehm et al., Walker et al.
For data set [4] the following is noted: after ingestion of Amanita mushrooms; cited from earlier work.
For data set [5] the following is noted: stomach, liver and brain; cited from earlier work.

Like-named read-outs stand apart in the source and are kept apart here.

Take `COC(=O)[C@H]1[C@@H](OC(=O)c2ccccc2)C[C@@H]2CC[C@H]1N2C` [Cocaine]: the “Conditioned place preference score for CS+ (percentage of time in the 2 conditioning compartments), Mean” value turned out to be 39.593 in data set [1] (Habituation), 49.665 in data set [1] (Overall), 61.194 in data set [1] (Test 1) and 48.208 in data set [1] (Test 2). For the same compound, the “Conditioned place preference score for CS+, LSMean (least squares mean)” value in data set [1] (Habituation) was 39.162; in data set [1] (Overall, different from Groups 1 and 3, p < 0.05), 49.639^a, f; in data set [1] (Test 1), 61.877; in data set [1] (Test 2) it was 47.822. Also, in data set [1] (20 mg/kg oral gavage, positive control), the “Outcome of CPP testing: conditioned place preference” value is given as “did produce a CPP”.
`NCc1cc(=O)[nH]o1` [muscimol, 5-(Aminomethyl)-1,2-oxazol-3(2H)-one]: in data set [2] (IV 8 μmol/kg 3H-muscimol, 150 g male Sprague Dawley rat), the “Amount of the dose injected that crossed to the brain” value is reported as “approximately 0.02%”. Moreover, the “Muscimol amount in the brain” value in data set [2] (IV 8 μmol/kg 3H-muscimol, male Sprague Dawley rat) was “approximately 200 pmol/g tissue”. The “Distribution at various brain regions” value in data set [2] (IV 8 μmol/kg, male Sprague Dawley rat) is “highest muscimol concentration being in the substantia nigra, the colliculi and the hypothalamus”. In addition, in data set [2] (after intravenous injection, rat), the “Time until blood concentration was below limits of detection” value was at most 180 min. Besides, in data set [2] (intracerebroventricular injection 1200 nmol/kg, rat), the “Distribution in the corneum stratum compared to the hypothalamus, hippocampus and cortex” value is reported as “approximately 2 times”. Also, in data set [2] (intravenous injection 8 μmol/kg, rat), the “Tolerability (reports of adverse effects or toxicity)” value is given as “well-tolerated”. For the same compound, the “Effect on brain levels of serotonin, noradrenaline and dopamine” value in data set [3] (3 mg/kg intraperitoneally) was “affect the levels of serotonin (5-hydroxytryptamine), noradrenaline and dopamine in the brain”. Besides, the “Mechanism of action at the GABA receptor” value with GABA receptor is “activation of the GABA receptor”. For the same compound, the “GABA agonist affinity and efficacy” value with GABA receptor (Worms et al.) is given as “GABA agonist of high affinity but of relatively low efficacy”. The “Time of detection in urine after ingestion” value in data set [4] is “detected within an hour after ingestion”.
As for `N[C@H](C(=O)O)c1cc(O)no1` [ibotenic acid, (S)-2-Amino-2-(3-hydroxyisoxazol-5-yl) acetic acid], in data set [3] (16 mg/kg intraperitoneally), the “Effect on brain levels of serotonin, noradrenaline and dopamine” value was “affect the levels of serotonin (5-hydroxytryptamine), noradrenaline and dopamine in the brain”. For the same compound, the “Mechanism of action at the GABA receptor” value in the data set on GABA receptor was “activation of the GABA receptor”. In addition, the Metabolic fate entry in data set [5] was “metabolized by decarboxylation in the stomach, liver, and brain to equal amounts of muscimol”. For the same compound, the “Time of detection in urine after ingestion” value in data set [4] is on record as “detected within an hour after ingestion”.

Source of the values: patent publication US20240269206A1, “AMANITA […] EXTRACTS AND COMPOUNDS AND THEIR […] […] USE” (priority 2021, published 2024).
